Laboratory results as given in US8680139B2 (Progenra, priority 2009, dated 2014).
pEC50: −log10 of the molar value.

Target: T1, USP7 (Homo sapiens, UniProt Q93009)
T1 construct: full length human USP7 protein; made in house
Assay: USP7, Ub-PLA2 assay
Type: biochemical
Conditions: Ub-PLA2 / NBD C6-HPC fluorescence, 30 minute preincubation; read-out: EC50 for inhibition of USP7
Experimental: The purpose of this assay is to measure the inhibition of USP7 by various compounds of the invention synthesized according to the above-described methods. […] The vehicle control was 100% (v/v) DMSO. 1.6 μL aliquots of the diluted test compound and controls were dispensed into individual wells in a black walled 96 well plate. […] The data were normalized within a plate relative to the control wells using the equation % inhibition=(100−(((RFUcompound−RFUmean NEM) / (RFUmean DMSO−RFUmean NEM))×100)).

T1 sequence (Q93009 whole entry): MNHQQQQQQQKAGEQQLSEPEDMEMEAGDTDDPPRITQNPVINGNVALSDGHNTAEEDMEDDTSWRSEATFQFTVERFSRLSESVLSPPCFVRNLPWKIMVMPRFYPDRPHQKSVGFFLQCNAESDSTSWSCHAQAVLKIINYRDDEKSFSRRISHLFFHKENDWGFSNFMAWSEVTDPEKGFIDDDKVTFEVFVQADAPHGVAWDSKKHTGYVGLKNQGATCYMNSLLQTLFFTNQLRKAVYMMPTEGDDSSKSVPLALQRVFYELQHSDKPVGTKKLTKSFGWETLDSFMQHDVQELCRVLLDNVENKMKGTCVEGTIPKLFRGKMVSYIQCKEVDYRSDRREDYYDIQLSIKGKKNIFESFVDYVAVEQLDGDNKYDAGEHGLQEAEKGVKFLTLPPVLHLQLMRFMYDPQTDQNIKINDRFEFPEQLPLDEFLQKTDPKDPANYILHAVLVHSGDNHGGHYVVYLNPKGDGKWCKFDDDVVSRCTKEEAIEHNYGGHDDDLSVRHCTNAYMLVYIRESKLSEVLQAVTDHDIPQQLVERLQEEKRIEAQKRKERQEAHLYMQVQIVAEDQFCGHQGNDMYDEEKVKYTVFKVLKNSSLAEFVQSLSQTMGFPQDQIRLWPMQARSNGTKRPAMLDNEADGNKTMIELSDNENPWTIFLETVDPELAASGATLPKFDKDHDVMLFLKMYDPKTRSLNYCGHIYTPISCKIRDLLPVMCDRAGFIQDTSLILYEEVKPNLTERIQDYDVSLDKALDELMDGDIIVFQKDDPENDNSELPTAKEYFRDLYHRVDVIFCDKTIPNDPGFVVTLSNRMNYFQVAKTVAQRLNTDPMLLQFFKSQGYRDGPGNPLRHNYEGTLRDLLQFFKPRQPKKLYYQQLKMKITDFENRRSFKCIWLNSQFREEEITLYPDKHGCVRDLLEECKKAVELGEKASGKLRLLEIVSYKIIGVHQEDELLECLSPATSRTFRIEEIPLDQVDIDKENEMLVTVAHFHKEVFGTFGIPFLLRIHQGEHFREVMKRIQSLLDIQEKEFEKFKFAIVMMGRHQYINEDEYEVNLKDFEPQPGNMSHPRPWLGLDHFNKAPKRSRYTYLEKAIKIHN

SMILES | pEC50
CC(=O)c1cc([N+](=O)[O-])c(S(=O)(=O)c2ccc(Cl)cc2Cl)s1 [Example 35, 1-[5-(2,4-dichlorophenyl)sulfonyl-4-nitro-2-thienyl]ethanone] | 5.00 to 6.00
CCn1cnc(NC(=O)c2cc([N+](=O)[O-])c(Sc3c(Cl)cncc3Cl)s2)n1 [Example 186, 5-((3,5-dichloropyridin-4-yl)thio)-N-(1-ethyl-1H-1,2,4-triazol-3-yl)-4-nitrothiophene-2-carboxamide] | ≥ 6.00
O=C(Nc1ccccc1Cl)c1cc([N+](=O)[O-])c(Sc2c(Cl)cncc2Cl)s1 [Example 134, N-(2-chlorophenyl)-5-((3,5-dichloropyridin-4-yl)thio)-4-nitrothiophene-2-carboxamide] | ≥ 6.00
CC(=O)c1cc([N+](=O)[O-])c(Sc2nccn2C)s1 [Example 15, 1-[5-(1-methylimidazol-2-yl)sulfanyl-4-nitro-2-thienyl]ethanone] | 5.00 to 6.00
CC(=O)c1cc([N+](=O)[O-])c(Sc2c(F)c(F)cc(F)c2F)s1 [Example 36, 1-[4-nitro-5-(2,3,5,6-tetrafluorophenyl)sulfanyl-2-thienyl]ethanone] | 5.00 to 6.00
N#Cc1cc(C(=O)Nc2cnc3ccccc3c2)sc1Sc1c(Cl)cncc1Cl [Example 207, 4-cyano-5-((3,5-dichloropyridin-4-yl)thio)-N-(quinolin-3-yl)thiophene-2-carboxamide] | 5.00 to 6.00
CC(=O)c1cc([N+](=O)[O-])c(Sc2cccc(Cl)c2)s1 [Example 6, 1-[5-(3-Chlorophenylsulfanyl)-4-nitro-2-thienyl]ethanone] | 5.00 to 6.00
COC(=O)c1cc([N+](=O)[O-])c(Sc2nc3nc(C)cc(C)n3n2)s1 [Example 266, Methyl 5-((5,7-dimethyl-[1,2,4]triazolo[1,5-a]pyrimidin-2-yl)thio)-4-nitrothiophene-2-carboxylate] | < 5.00
CCOc1cccc(CNC(=O)c2cc([N+](=O)[O-])c(Sc3c(Cl)cncc3Cl)s2)c1 [Example 149, 5-((3,5-dichloropyridin-4-yl)thio)-N-(3-ethoxybenzyl)-4-nitrothiophene-2-carboxamide] | ≥ 6.00
CC(=O)c1cc([N+](=O)[O-])c(Sc2ccc3c(C)cc(=O)oc3c2)s1 [Example 38, 7-[(5-acetyl-3-nitro-2-thienyl)sulfanyl]-4-methyl-chromen-2-one] | < 5.00
Cc1nc(C)c(Cl)c(Sc2sc(C(=O)NC3CCN(C)CC3)cc2[N+](=O)[O-])c1Cl [Example 243, 5-((3,5-dichloro-2,6-dimethylpyridin-4-yl)thio)-N-(1-methylpiperidin-4-yl)-4-nitrothiophene-2-carboxamide] | 5.00 to 6.00
CN(C)CCCOc1ccc(NC(=O)c2cc([N+](=O)[O-])c(Sc3c(F)cncc3F)s2)cc1 [Example 257, 5-((3,5-difluoropyridin-4-yl)thio)-N-(4-(3-(dimethylamino)propoxy)phenyl)-4-nitrothiophene-2-carboxamide] | 5.00 to 6.00
O=C(Nc1ccc(F)c(C(F)(F)F)c1)c1cc([N+](=O)[O-])c(Sc2c(Cl)cncc2Cl)s1 [Example 140, 5-((3,5-dichloropyridin-4-yl)thio)-N-(4-fluoro-3-(trifluoromethyl)phenyl)-4-nitrothiophene-2-carboxamid] | ≥ 6.00
COc1cc(NC(=O)c2cc([N+](=O)[O-])c(Sc3c(Cl)cncc3Cl)s2)cc(OC)c1OC [Example 169, 5-((3,5-dichloropyridin-4-yl)thio)-4-nitro-N-(3,4,5-trimethoxyphenyl)thiophene-2-carboxamide] | ≥ 6.00
Nc1ccc(NC(=O)c2cc([N+](=O)[O-])c(Sc3c(Cl)cncc3Cl)s2)cc1 [Example 235, N-(4-aminophenyl)-5-((3,5-dichloropyridin-4-yl)thio)-4-nitrothiophene-2-carboxamide] | ≥ 6.00
O=C(NCc1ccccc1Cl)c1cc([N+](=O)[O-])c(Sc2c(Cl)cncc2Cl)s1 [Example 60, N-(2-chlorobenzyl)-5-((3,5-dichloropyridin-4-yl)thio)-4-nitrothiophene-2-carboxamide] | 5.00 to 6.00
CC(=O)c1cc([N+](=O)[O-])c(Sc2c(Cl)c[n+]([O-])cc2Cl)s1 [Example 18, 1-[5-(3,5-dichloro-1-oxido-pyridin-1-ium-4-yl)sulfanyl-4-nitro-2-thienyl]ethanone] | 5.00 to 6.00
O=[N+]([O-])c1cc(Br)sc1Sc1ccc(Cl)cc1Cl [Example 33, 5-bromo-2-(2,4-dichlorophenyl)sulfanyl-3-nitro-thiophene] | < 5.00
CC(=O)c1ccc(NC(=O)c2cc([N+](=O)[O-])c(Sc3c(Cl)cncc3Cl)s2)cc1 [Example 183, N-(4-acetylphenyl)-5-((3,5-dichloropyridin-4-yl)thio)-4-nitrothiophene-2-carboxamide] | ≥ 6.00
O=C(Nc1ccc(Cl)cc1Cl)c1cc([N+](=O)[O-])c(Sc2c(Cl)cncc2Cl)s1 [Example 141, N-(2,4-dichlorophenyl)-5-((3,5-dichloropyridin-4-yl)thio)-4-nitrothiophene-2-carboxamide] | ≥ 6.00
COc1ccccc1CCNC(=O)c1cc([N+](=O)[O-])c(Sc2c(Cl)cncc2Cl)s1 [Example 113, 5-((3,5-dichloropyridin-4-yl)thio)-N-(2-methoxyphenethyl)-4-nitrothiophene-2-carboxamide] | ≥ 6.00
O=C(NC12CC3CC(CC(C3)C1)C2)c1cc([N+](=O)[O-])c(Sc2c(Cl)cncc2Cl)s1 [Example 76, N-((3s,5s,7s)-adamantan-1-yl)-5-((3,5-dichloropyridin-4-yl)thio)-4-nitrothiophene-2-carboxamide] | < 5.00
COC(=O)c1cc([N+](=O)[O-])c(Oc2c(Cl)cncc2Cl)s1 [Example 258, Methyl 5-((3,5-dichloropyridin-4-yl)oxy)-4-nitrothiophene-2-carboxylate] | 5.00 to 6.00
CN1CCC(NC(=O)c2cc([N+](=O)[O-])c(Sc3ccc(Cl)cc3Cl)s2)CC1 [Example 81, 5-((2,4-dichlorophenyl)thio)-N-(1-methylpiperidin-4-yl)-4-nitrothiophene-2-carboxamide] | 5.00 to 6.00

Results, then the molecule that gave them:

pEC50 | SMILES
5.00 to 6.00 | O=C(NCCCN1CCCC(O)C1)c1cc([N+](=O)[O-])c(Sc2c(Cl)cncc2Cl)s1 (centres unmarked) [Example 223, 5-((3,5-dichloropyridin-4-yl)thio)-N-(3-(3-hydroxypiperidin-1-yl)propyl)-4-nitrothiophene-2-carboxamide]
≥ 6.00 | O=C(NCCCN1CCCC1=O)c1cc([N+](=O)[O-])c(Sc2c(Cl)cncc2Cl)s1 [Example 104, 5-((3,5-dichloropyridin-4-yl)thio)-4-nitro-N-(3-(2-oxopyrrolidin-1-yl)propyl)thiophene-2-carboxamide]
≥ 6.00 | O=C(NCCCN1CCCCC1)c1cc([N+](=O)[O-])c(Sc2c(Cl)cncc2Cl)s1 [Example 100, 5-((3,5-dichloropyridin-4-yl)thio)-4-nitro-N-(3-(piperidin-1-yl)propyl)thiophene-2-carboxamide]
5.00 to 6.00 | CCOC(=O)CNC(=O)c1cc([N+](=O)[O-])c(Sc2c(Cl)cncc2Cl)s1 [Example 209, Ethyl 2-(5-((3,5-dichloropyridin-4-yl)thio)-4-nitrothiophene-2-carboxamido)acetate]
5.00 to 6.00 | O=C(c1cc([N+](=O)[O-])c(Sc2c(Cl)cncc2Cl)s1)N1CCN(CCO)CC1 [Example 61, (5-((3,5-dichloropyridin-4-yl)thio)-4-nitrothiophen-2-yl)(4-(2-hydroxyethyl)piperazin-1-yl)methanone]
≥ 6.00 | CCN1CCC(CCNC(=O)c2cc([N+](=O)[O-])c(Sc3c(Cl)cncc3Cl)s2)CC1 [Example 185, 5-((3,5-dichloropyridin-4-yl)thio)-N-(2-(1-ethylpiperidin-4-yl)ethyl)-4-nitrothiophene-2-carboxamide]
5.00 to 6.00 | O=C(NCC(=O)N1CCCCC1)c1cc([N+](=O)[O-])c(Sc2c(Cl)cncc2Cl)s1 [Example 221, 5-((3,5-dichloropyridin-4-yl)thio)-4-nitro-N-(2-oxo-2-(piperidin-1-yl)ethyl)thiophene-2-carboxamide]
5.00 to 6.00 | O=C(NC1CCC(O)CC1)c1cc([N+](=O)[O-])c(Sc2c(Cl)cncc2Cl)s1 (centres unmarked) [Example 77, 5-((3,5-dichloropyridin-4-yl)thio)-N-(4-hydroxycyclohexyl)-4-nitrothiophene-2-carboxamide]
≥ 6.00 | O=C(NC1CCNC1)c1cc([N+](=O)[O-])c(Sc2c(Cl)cncc2Cl)s1 (centres unmarked) [Example 195, 5-((3,5-dichloropyridin-4-yl)thio)-4-nitro-N-(pyrrolidin-3-yl)thiophene-2-carboxamide]
5.00 to 6.00 | COCCNC(=O)c1cc([N+](=O)[O-])c(Sc2c(Cl)cncc2Cl)s1 [Example 53, 5-((3,5-dichloropyridin-4-yl)thio)-N-(2-methoxyethyl)-4-nitrothiophene-2-carboxamide]
5.00 to 6.00 | O=C(NCCC(=O)N1CCCC1)c1cc([N+](=O)[O-])c(Sc2c(Cl)cncc2Cl)s1 [Example 268, 5-((3,5-dichloropyridin-4-yl)thio)-4-nitro-N-(3-oxo-3-(pyrrolidin-1-yl)propyl)thiophene-2-carboxamide]
5.00 to 6.00 | CC(C)NC(=O)c1cc([N+](=O)[O-])c(Sc2c(Cl)cncc2Cl)s1 [Example 44, 5-[(3,5-dichloro-4-pyridyl)sulfanyl]-N-isopropyl-4-nitro-thiophene-2-carboxamide]
≥ 6.00 | CC1(C)CCN(CCCNC(=O)c2cc([N+](=O)[O-])c(Sc3c(Cl)cncc3Cl)s2)CC1 [Example 229, 5-((3,5-dichloropyridin-4-yl)thio)-N-(3-(4,4-dimethylpiperidin-1-yl)propyl)-4-nitrothiophene-2-carboxamide]
5.00 to 6.00 | O=C(NCCN1CCOCC1)c1cc([N+](=O)[O-])c(Sc2c(Cl)cncc2Cl)s1 [Example 59, 5-((3,5-dichloropyridin-4-yl)thio)-N-(2-morpholinoethyl)-4-nitrothiophene-2-carboxamide]
